The values below come from the supplement of paper PMC10307832.

One assay concerns 201T. Description: relative viability (nuclei count vs DMSO), 5 days (fraction); higher = more cells survive. As to conditions: first compound 0.253 µM. In a few lines: (§1)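 Values are medians from duplicate plates. Each reflects relative viability, defined as the nuclei count of treated wells over that of vehicle wells. Lung cancer cell lines in 1536-well plates were pin-tool dosed one day after seeding with one drug alone or with a fixed anchor-drug dose plus five library-drug doses (not always all listed) in √10 steps, then fixed, stained and imaged at 4× after 5 days.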
In the case of `Nc1cccc2c1CN(C1CCC(=O)NC1=O)C2=O` (stereo not given) [Lenalidomide] + N=C(N)NC(=N)NCCc1ccccc1 [Phenformin] (partner 250 µM), the relative viability stood at 0.448.
Take `Nc1cccc2c1CN(C1CCC(=O)NC1=O)C2=O` (stereo not given) [Lenalidomide] + Cc1cc(Nc2cc(N3CCN(C)CC3)nc(Sc3ccc(NC(=O)C4CC4)cc3)n2)n[nH]1 [Tozasertib] (partner 0.1 µM): the relative viability was determined as 1.01.
`Nc1cccc2c1CN(C1CCC(=O)NC1=O)C2=O` (stereo not given) [Lenalidomide] + CC(=O)c1c(C)c2cnc(Nc3ccc(N4CCNCC4)cn3)nc2n(C2CCCC2)c1=O [Palbociclib] (partner 0.5 µM) showed a relative viability of 0.394.
As for `Nc1cccc2c1CN(C1CCC(=O)NC1=O)C2=O` (stereo not given) [Lenalidomide] + O=C(CCCCCCC(=O)Nc1ccccc1)NO [Vorinostat] (partner 1 µM), the relative viability was determined as 0.963.
As to `Nc1cccc2c1CN(C1CCC(=O)NC1=O)C2=O` (stereo not given) [Lenalidomide] + COc1cccc2cc(-c3nc([C@H]4CC[C@H](C(=O)O)CC4)n4ncnc(N)c34)[nH]c12 [OSI-027] (partner 0.5 µM), the relative viability amounted to 0.767.

Staying with this assay, now noted: first compound 0.8 µM.
As to `Nc1cccc2c1CN(C1CCC(=O)NC1=O)C2=O` (stereo not given) [Lenalidomide] + CC(=O)c1c(C)c2cnc(Nc3ccc(N4CCNCC4)cn3)nc2n(C2CCCC2)c1=O [Palbociclib] (partner 0.5 µM), the relative viability amounted to 0.359.
The compound `Nc1cccc2c1CN(C1CCC(=O)NC1=O)C2=O` (stereo not given) [Lenalidomide] + O=C(CCCCCCC(=O)Nc1ccccc1)NO [Vorinostat] (partner 1 µM) returned a relative viability of 0.791.
On the same count and under the same terms, next, `Nc1cccc2c1CN(C1CCC(=O)NC1=O)C2=O` (stereo not given) [Lenalidomide] + COc1cccc2cc(-c3nc([C@H]4CC[C@H](C(=O)O)CC4)n4ncnc(N)c34)[nH]c12 [OSI-027] (partner 0.5 µM): 0.494.

Still in this assay, the particulars now being: first compound 2.53 µM.
As for `Nc1cccc2c1CN(C1CCC(=O)NC1=O)C2=O` (stereo not given) [Lenalidomide] + N=C(N)NC(=N)NCCc1ccccc1 [Phenformin] (partner 250 µM), the relative viability was 0.444.
On to `Nc1cccc2c1CN(C1CCC(=O)NC1=O)C2=O` (stereo not given) [Lenalidomide] + Cc1cc(Nc2cc(N3CCN(C)CC3)nc(Sc3ccc(NC(=O)C4CC4)cc3)n2)n[nH]1 [Tozasertib] (partner 0.1 µM), for which the relative viability was found to be 1.02.
In turn, `Nc1cccc2c1CN(C1CCC(=O)NC1=O)C2=O` (stereo not given) [Lenalidomide] + CC(=O)c1c(C)c2cnc(Nc3ccc(N4CCNCC4)cn3)nc2n(C2CCCC2)c1=O [Palbociclib] (partner 0.5 µM) returned a relative viability of 0.38.
Turning to `Nc1cccc2c1CN(C1CCC(=O)NC1=O)C2=O` (stereo not given) [Lenalidomide] + O=C(CCCCCCC(=O)Nc1ccccc1)NO [Vorinostat] (partner 1 µM), the relative viability is 0.955.
As for `Nc1cccc2c1CN(C1CCC(=O)NC1=O)C2=O` (stereo not given) [Lenalidomide] + COc1cccc2cc(-c3nc([C@H]4CC[C@H](C(=O)O)CC4)n4ncnc(N)c34)[nH]c12 [OSI-027] (partner 0.5 µM), the relative viability came out at 0.799.

The assay is the same for the next values; noted with them: first compound 8 µM.
Compound `Nc1cccc2c1CN(C1CCC(=O)NC1=O)C2=O` (stereo not given) [Lenalidomide] + N=C(N)NC(=N)NCCc1ccccc1 [Phenformin] (partner 250 µM) returned a relative viability of 0.404.
For the compound `Nc1cccc2c1CN(C1CCC(=O)NC1=O)C2=O` (stereo not given) [Lenalidomide] + Cc1cc(Nc2cc(N3CCN(C)CC3)nc(Sc3ccc(NC(=O)C4CC4)cc3)n2)n[nH]1 [Tozasertib] (partner 0.1 µM), the relative viability came out at 1.02.
Compound `Nc1cccc2c1CN(C1CCC(=O)NC1=O)C2=O` (stereo not given) [Lenalidomide] + CC(=O)c1c(C)c2cnc(Nc3ccc(N4CCNCC4)cn3)nc2n(C2CCCC2)c1=O [Palbociclib] (partner 0.5 µM) displayed a relative viability of 0.351.
In turn, `Nc1cccc2c1CN(C1CCC(=O)NC1=O)C2=O` (stereo not given) [Lenalidomide] + O=C(CCCCCCC(=O)Nc1ccccc1)NO [Vorinostat] (partner 1 µM) came in with a relative viability of 0.859.
`Nc1cccc2c1CN(C1CCC(=O)NC1=O)C2=O` (stereo not given) [Lenalidomide] + COc1cccc2cc(-c3nc([C@H]4CC[C@H](C(=O)O)CC4)n4ncnc(N)c34)[nH]c12 [OSI-027] (partner 0.5 µM) yielded a relative viability of 0.791.

The next assay relates to ABC-1. Described as above. As to conditions: first compound 0.253 µM. The gist of the method:
as §1
Take `Nc1cccc2c1CN(C1CCC(=O)NC1=O)C2=O` (stereo not given) [Lenalidomide] + N=C(N)NC(=N)NCCc1ccccc1 [Phenformin] (partner 250 µM): the relative viability is 0.209.
In the case of `Nc1cccc2c1CN(C1CCC(=O)NC1=O)C2=O` (stereo not given) [Lenalidomide] + Cc1cc(Nc2cc(N3CCN(C)CC3)nc(Sc3ccc(NC(=O)C4CC4)cc3)n2)n[nH]1 [Tozasertib] (partner 0.1 µM), the relative viability worked out at 0.199.
Same read-out and setting: the same measure for `Nc1cccc2c1CN(C1CCC(=O)NC1=O)C2=O` (stereo not given) [Lenalidomide] + CC(=O)c1c(C)c2cnc(Nc3ccc(N4CCNCC4)cn3)nc2n(C2CCCC2)c1=O [Palbociclib] (partner 0.5 µM): 0.577.
Still for that read-out and setting: the same measure for `Nc1cccc2c1CN(C1CCC(=O)NC1=O)C2=O` (stereo not given) [Lenalidomide] + O=C(CCCCCCC(=O)Nc1ccccc1)NO [Vorinostat] (partner 1 µM): 1.31; for `Nc1cccc2c1CN(C1CCC(=O)NC1=O)C2=O` (stereo not given) [Lenalidomide] + COc1cccc2cc(-c3nc([C@H]4CC[C@H](C(=O)O)CC4)n4ncnc(N)c34)[nH]c12 [OSI-027] (partner 0.5 µM): 0.453.

Staying with this assay, now noted: first compound 0.8 µM.
With `Nc1cccc2c1CN(C1CCC(=O)NC1=O)C2=O` (stereo not given) [Lenalidomide] + N=C(N)NC(=N)NCCc1ccccc1 [Phenformin] (partner 250 µM), the relative viability was 0.216.
As for `Nc1cccc2c1CN(C1CCC(=O)NC1=O)C2=O` (stereo not given) [Lenalidomide] + Cc1cc(Nc2cc(N3CCN(C)CC3)nc(Sc3ccc(NC(=O)C4CC4)cc3)n2)n[nH]1 [Tozasertib] (partner 0.1 µM), the relative viability amounted to 0.17.
Same read-out and setting: next, `Nc1cccc2c1CN(C1CCC(=O)NC1=O)C2=O` (stereo not given) [Lenalidomide] + CC(=O)c1c(C)c2cnc(Nc3ccc(N4CCNCC4)cn3)nc2n(C2CCCC2)c1=O [Palbociclib] (partner 0.5 µM): 0.518; `Nc1cccc2c1CN(C1CCC(=O)NC1=O)C2=O` (stereo not given) [Lenalidomide] + O=C(CCCCCCC(=O)Nc1ccccc1)NO [Vorinostat] (partner 1 µM): 1.1; `Nc1cccc2c1CN(C1CCC(=O)NC1=O)C2=O` (stereo not given) [Lenalidomide] + COc1cccc2cc(-c3nc([C@H]4CC[C@H](C(=O)O)CC4)n4ncnc(N)c34)[nH]c12 [OSI-027] (partner 0.5 µM): 0.489.

Staying with this assay, now noted: first compound 2.53 µM.
As for `Nc1cccc2c1CN(C1CCC(=O)NC1=O)C2=O` (stereo not given) [Lenalidomide] + N=C(N)NC(=N)NCCc1ccccc1 [Phenformin] (partner 250 µM), the relative viability was 0.27.
The same measure, in the same setting: next, `Nc1cccc2c1CN(C1CCC(=O)NC1=O)C2=O` (stereo not given) [Lenalidomide] + Cc1cc(Nc2cc(N3CCN(C)CC3)nc(Sc3ccc(NC(=O)C4CC4)cc3)n2)n[nH]1 [Tozasertib] (partner 0.1 µM): 0.184.
